Calls of active or inactive are those of the source.
Tests used:
[1] = target: T1, Voltage-gated N-type calcium channel alpha-1B subunit/Amyloid beta A4 precursor protein-binding family A member 1 (Homo sapiens, UniProt Q00975+Q02410); format: protein assay
[2] = target: DNA (cytosine-5)-methyltransferase 1 (Homo sapiens, UniProt P26358); experiment: inhibition of DNA methylation by DNMT1 – biochemical, fluorescent molecular beacon, confirmation (AID 602386); format: functional
[3] = target: T1, Voltage-gated N-type calcium channel alpha-1B subunit/Amyloid beta A4 precursor protein-binding family A member 1; format: protein assay; remark: listed apart in the source
[4] = target: Eukaryotic translation initiation factor 4H (Homo sapiens, UniProt Q15056); experiment: eIF4H binding inhibition – biochemical, uHTS, fluorescence polarization, translation initiation inhibitor project, primary screen (AID 2012)
[5] = target: Polyadenylate-binding protein 1 (Homo sapiens, UniProt P11940); experiment: blockers of PABP interaction with poly(A) – biochemical, fluorescence polarization, […] (AID 2014)
Sequence of Polyadenylate-binding protein 1 (P11940 whole entry): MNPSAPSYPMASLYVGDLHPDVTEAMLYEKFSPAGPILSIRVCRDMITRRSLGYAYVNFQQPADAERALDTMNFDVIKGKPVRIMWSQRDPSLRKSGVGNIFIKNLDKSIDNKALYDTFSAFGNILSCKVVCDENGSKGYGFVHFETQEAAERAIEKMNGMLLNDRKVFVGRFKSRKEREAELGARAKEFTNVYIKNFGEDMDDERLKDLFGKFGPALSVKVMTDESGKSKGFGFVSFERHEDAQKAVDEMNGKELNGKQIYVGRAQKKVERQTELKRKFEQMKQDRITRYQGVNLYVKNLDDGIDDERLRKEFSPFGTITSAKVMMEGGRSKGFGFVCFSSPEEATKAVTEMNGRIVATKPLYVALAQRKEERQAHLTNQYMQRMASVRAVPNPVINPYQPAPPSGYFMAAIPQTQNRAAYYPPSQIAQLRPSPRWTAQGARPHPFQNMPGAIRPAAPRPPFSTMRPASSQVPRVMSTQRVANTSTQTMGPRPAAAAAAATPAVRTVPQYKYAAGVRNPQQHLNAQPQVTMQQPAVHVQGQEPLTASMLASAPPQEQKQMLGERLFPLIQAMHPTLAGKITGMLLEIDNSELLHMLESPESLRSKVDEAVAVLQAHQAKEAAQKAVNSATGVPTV

[6] = A cytotoxicity screen of small molecule inhibitors of the PhoP region in Salmonella typhi identified in the primary screen. [Related pubchem assays: 1850, 1864, 1985 ]; format: functional
[7] = (§1) Counterscreen for antagonists of the orexin 1 receptor (OX1R; HCRTR1): Fluorescence-based cell-based high throughput dose response assay to identify antagonists of the parental CHO cell line. [Related pubchem assays (depositor defined):AID434989, AID435008, AID463079, AID485270, AID492963, AID492964, AID492965, AID493232, AID504699, AID504701]; format: functional
[8] = target: T2, Orexin/Hypocretin receptor type 1 (Homo sapiens, UniProt O43613); experiment: (§2) Fluorescence-based cell-based high throughput dose response assay for antagonists of the orexin 1 receptor (OX1R; HCRTR1). [Related pubchem assays (depositor defined):AID434989, AID435008, AID463079, AID485270, AID492963, AID492964, AID492965, AID493232, AID504717, AID504718]; format: functional
T2 sequence (O43613 whole entry): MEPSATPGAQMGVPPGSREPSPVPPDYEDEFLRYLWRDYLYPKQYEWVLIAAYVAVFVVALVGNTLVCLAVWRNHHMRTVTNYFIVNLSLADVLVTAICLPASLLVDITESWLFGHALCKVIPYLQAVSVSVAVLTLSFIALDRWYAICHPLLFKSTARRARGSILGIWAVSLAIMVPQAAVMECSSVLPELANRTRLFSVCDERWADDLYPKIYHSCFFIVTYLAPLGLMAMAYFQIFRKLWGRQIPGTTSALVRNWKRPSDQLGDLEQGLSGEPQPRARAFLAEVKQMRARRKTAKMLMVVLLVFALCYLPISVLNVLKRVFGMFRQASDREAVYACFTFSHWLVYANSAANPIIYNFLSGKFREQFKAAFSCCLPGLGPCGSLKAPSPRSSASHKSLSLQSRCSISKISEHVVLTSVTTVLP

[9] = target: T2, Orexin/Hypocretin receptor type 1; experiment: as §2, with “Homogeneous Time Resolved Fluorescence (HTRF)-based” for “Fluorescence-based”; format: functional
CHO-K1 = experiment: as §1, with “Homogeneous time resolved fluorescence (HTRF)-based” for “Fluorescence-based”, “cell-based” for “cell-based high throughput”, “CHO-K1” for “CHO”; format: functional; conditions: Cricetulus griseus;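 further: potency for inhibition of ATP-stimulated IP1 production as antagonists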
[10] = A Cell Based Secondary Assay To Explore Cytotoxicity of Compounds that Sensitize Mycobacterium Tuberculosis to Beta-Lactam Antibiotics.; format: functional
[11] = target: T3, Short transient receptor potential channel 4 (Mus musculus, UniProt Q9QUQ5); experiment: block of DAMGO-driven TRPC4 calcium entry – cell-based, HEK293 TRPC4/mu-opioid, Fluo-4 calcium, dose response (AID 434942); format: functional;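 further: potency of inhibitors blocking the TRPC4 calcium response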
T3 sequence (Q9QUQ5 whole entry): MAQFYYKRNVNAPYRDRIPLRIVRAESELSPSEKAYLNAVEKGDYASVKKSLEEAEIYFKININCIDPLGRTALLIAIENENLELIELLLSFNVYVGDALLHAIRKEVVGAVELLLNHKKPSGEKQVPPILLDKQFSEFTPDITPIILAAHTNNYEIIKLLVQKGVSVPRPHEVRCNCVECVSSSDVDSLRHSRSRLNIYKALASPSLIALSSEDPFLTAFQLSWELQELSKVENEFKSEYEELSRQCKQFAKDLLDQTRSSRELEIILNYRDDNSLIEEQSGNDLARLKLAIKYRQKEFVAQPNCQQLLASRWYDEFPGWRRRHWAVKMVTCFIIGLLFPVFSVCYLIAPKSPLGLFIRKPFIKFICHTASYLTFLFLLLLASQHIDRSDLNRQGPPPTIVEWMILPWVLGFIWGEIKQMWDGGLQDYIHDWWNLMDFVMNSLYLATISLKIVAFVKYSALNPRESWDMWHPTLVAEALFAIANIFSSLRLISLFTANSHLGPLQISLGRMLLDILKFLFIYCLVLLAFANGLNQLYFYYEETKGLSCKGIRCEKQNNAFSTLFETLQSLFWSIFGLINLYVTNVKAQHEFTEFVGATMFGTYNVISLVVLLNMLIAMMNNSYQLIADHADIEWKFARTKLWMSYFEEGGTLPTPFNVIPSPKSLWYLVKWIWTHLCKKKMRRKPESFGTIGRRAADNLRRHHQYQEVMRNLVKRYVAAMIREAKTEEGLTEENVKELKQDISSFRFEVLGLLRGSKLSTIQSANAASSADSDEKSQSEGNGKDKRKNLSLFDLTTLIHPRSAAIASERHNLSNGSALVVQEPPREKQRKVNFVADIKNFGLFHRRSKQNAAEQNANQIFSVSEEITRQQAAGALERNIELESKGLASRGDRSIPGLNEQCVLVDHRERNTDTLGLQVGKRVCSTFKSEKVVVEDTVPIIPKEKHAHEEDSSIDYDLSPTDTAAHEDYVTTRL

[12] = target: DNA damage-inducible transcript 3 protein (Mus musculus, UniProt P35639); format: functional, Cricetulus griseus
Sequence of DNA damage-inducible transcript 3 protein (P35639 whole entry): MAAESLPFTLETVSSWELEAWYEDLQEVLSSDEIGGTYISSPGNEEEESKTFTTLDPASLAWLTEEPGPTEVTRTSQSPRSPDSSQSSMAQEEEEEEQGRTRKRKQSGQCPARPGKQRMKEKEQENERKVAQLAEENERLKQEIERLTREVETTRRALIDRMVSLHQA

T1 sequence (Q00975 whole entry): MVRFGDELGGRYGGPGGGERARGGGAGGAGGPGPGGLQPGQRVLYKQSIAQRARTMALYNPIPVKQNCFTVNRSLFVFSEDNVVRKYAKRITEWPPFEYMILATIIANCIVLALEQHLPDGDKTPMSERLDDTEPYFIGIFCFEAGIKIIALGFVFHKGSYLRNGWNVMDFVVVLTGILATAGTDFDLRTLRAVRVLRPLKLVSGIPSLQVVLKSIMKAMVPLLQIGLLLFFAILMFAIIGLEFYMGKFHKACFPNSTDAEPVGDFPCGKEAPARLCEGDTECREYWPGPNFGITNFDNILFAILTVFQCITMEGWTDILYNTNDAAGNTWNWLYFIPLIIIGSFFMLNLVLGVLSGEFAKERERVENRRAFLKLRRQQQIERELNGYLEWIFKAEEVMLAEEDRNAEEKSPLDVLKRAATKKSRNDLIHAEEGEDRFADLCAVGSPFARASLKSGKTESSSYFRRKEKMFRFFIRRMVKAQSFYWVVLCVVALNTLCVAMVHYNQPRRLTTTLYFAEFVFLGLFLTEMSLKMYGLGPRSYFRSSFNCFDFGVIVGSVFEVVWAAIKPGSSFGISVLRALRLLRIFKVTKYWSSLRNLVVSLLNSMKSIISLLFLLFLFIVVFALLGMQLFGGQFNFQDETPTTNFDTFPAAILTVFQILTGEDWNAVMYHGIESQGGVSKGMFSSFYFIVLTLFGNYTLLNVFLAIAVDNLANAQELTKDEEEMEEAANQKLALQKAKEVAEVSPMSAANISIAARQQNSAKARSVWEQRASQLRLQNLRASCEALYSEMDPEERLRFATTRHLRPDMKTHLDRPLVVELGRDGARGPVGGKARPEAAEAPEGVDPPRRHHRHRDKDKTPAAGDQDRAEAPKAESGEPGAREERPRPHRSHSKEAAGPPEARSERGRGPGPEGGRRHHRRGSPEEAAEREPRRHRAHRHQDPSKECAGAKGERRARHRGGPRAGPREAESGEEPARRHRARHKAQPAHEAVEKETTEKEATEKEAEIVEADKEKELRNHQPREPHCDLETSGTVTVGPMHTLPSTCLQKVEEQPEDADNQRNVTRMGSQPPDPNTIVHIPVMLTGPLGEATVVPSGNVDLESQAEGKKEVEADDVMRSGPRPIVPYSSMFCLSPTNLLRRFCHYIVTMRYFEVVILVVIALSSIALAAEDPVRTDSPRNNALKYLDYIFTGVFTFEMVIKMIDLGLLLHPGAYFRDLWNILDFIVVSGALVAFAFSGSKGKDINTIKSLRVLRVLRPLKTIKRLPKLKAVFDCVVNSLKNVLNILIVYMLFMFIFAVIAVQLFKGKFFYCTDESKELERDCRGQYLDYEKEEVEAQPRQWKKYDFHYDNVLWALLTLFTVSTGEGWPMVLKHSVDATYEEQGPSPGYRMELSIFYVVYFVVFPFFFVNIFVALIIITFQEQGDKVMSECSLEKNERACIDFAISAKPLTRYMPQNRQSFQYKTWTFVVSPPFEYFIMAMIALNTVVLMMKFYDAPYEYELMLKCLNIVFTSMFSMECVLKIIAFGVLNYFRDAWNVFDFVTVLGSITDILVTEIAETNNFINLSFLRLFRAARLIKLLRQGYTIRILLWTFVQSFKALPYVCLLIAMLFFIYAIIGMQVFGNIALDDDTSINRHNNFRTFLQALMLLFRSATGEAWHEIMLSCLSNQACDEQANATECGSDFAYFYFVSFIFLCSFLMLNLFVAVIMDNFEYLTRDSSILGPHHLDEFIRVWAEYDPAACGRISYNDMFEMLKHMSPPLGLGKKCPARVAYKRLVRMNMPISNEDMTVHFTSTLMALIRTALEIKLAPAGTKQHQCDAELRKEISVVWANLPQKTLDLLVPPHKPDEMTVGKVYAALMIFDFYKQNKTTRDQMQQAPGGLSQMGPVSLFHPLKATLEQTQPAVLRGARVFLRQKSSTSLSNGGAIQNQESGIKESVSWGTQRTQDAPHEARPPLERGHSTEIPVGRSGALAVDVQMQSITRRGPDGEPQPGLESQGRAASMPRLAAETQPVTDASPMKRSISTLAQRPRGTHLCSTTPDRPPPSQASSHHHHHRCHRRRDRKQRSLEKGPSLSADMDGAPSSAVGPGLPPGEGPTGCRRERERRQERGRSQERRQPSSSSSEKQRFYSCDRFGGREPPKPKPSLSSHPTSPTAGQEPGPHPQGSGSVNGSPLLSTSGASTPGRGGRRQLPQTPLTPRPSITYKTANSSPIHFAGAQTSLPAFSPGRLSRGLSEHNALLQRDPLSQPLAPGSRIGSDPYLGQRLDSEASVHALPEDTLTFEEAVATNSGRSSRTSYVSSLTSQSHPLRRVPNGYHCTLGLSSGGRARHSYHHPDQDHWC
T1 sequence (Q02410 whole entry): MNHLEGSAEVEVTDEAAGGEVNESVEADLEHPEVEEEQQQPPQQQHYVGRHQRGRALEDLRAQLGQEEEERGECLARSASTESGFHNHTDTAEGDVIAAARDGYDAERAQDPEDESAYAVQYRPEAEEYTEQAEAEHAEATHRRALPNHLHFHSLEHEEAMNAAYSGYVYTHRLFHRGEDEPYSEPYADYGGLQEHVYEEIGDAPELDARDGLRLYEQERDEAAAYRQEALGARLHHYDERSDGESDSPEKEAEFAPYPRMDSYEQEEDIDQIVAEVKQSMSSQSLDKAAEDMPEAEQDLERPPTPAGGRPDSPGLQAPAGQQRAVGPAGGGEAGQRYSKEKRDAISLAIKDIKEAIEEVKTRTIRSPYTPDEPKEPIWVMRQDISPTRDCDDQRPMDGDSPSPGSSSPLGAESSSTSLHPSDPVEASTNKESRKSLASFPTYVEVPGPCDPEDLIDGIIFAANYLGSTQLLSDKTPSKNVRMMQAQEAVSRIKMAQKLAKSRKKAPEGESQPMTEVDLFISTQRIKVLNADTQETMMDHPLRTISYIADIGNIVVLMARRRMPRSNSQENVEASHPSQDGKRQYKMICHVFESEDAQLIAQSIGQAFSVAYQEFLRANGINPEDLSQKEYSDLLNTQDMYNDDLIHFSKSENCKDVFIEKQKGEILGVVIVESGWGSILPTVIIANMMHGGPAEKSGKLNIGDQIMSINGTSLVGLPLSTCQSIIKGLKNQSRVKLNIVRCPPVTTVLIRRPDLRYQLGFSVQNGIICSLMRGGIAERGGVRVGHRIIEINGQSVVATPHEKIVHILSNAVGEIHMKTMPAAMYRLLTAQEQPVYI

Compound: O=C(CN1C(=O)S/C(=C\c2ccc(-c3cc(C(=O)O)ccc3Cl)o2)C1=O)Nc1ccc2c(c1)OCO2
- IC50 [1]: > 56.8 µM (not active)
- IC50 [2]: > 99 µM (inactive)
- IC50 [3]: > 50 µM (inactive)

Compound: CCN1C(NCCc2ccccn2)=N[C@@H](c2cccc(F)c2)C(C(=O)OC)=C1C
- IC50 [4]: > 100 µM (inactive)
- IC50 [5]: 13.4 µM (active)

Compound: COC(=O)c1cc2oc(C)cc2n1CC(=O)Nc1ccc(C)c(C)c1
- EC50 [6]: > 50 µM (active)

Compound: Cc1cc(C)nc(N=C(N)Nc2ccc(F)c([N+](=O)[O-])c2)n1
- IC50 [7]: 17.8 µM (inactive)
- IC50 [8]: 15.1 µM (inactive)
- IC50 [9]: 10.1 µM (inactive)
- IC50 (CHO-K1): 11.6 µM (inactive)

Compound: O=C(c1cccc(C(=O)N2CCN(c3ccc(F)cc3)CC2)c1)N1CCN(c2ccc(F)cc2)CC1
- CC50 [10]: > 40 µM (active)
- EC50 [11]: 0.841 µM (active)

Compound: CCc1ccc(OCCNC(=O)c2ccccc2SCc2ccccc2)cc1
- Absolute IC50 (CHOP) [12]: 10 µM

Compound: CCn1nc(NC(C)=O)c2cc3cccc(C)c3nc21
- IC50 [4]: > 100 µM (inactive)
- IC50 [5]: 7.59 µM (active)

Compound: CN1CCc2nc(SCC(=O)Nc3ccc(Cl)cc3)c(C#N)cc2C1
- EC50 [6]: > 50 µM (active)

Source: ChEMBL document CHEMBL1201862, “PubChem BioAssay data set” (2004)
